Source: article PMC5474678 (Journal of medicinal chemistry, 2015)

Key:
BRD4 BD2 = BRD4 BD2 (Homo sapiens, UniProt O60885); assay: Competitive fluorescence polarization
MOLM-13 cells = assay: Cell viability assay; assay type: cell-based; details: Homo sapiens, MOLM-13, 96 h, read-out: IC50 cell growth inhibition MOLM-13
BRD3 BD1 = BRD3 BD1 (Homo sapiens, UniProt Q15059); assay: Competitive fluorescence polarization
BRD4 BD1 = BRD4 BD1 (Homo sapiens, UniProt O60885); assay: Competitive fluorescence polarization
MV4;11 cells = assay: Cell viability assay; assay type: cell-based; details: Homo sapiens, MV4-11, 96 h, read-out: IC50 cell growth inhibition MV4
BRD3 BD2 = BRD3 BD2 (Homo sapiens, UniProt Q15059); assay: Competitive fluorescence polarization
K562 cells = assay: Cell viability assay; assay type: cell-based; details: Homo sapiens, K562, 96 h, read-out: IC50 cell growth inhibition K562
BRD2 BD1 = BRD2 BD1 (Homo sapiens, UniProt P25440); assay: Competitive fluorescence polarization
BRD2 BD1, sequence (P25440 72-205): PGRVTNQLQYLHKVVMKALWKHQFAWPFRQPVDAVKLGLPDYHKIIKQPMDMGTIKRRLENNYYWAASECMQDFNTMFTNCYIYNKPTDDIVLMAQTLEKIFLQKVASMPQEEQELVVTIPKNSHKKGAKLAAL

BRD3 BD1, sequence (Q15059 24-144): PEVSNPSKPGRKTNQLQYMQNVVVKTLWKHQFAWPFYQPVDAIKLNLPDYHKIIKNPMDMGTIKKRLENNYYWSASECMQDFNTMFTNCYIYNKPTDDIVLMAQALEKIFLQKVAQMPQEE
BRD3 BD2, sequence (Q15059 306-417): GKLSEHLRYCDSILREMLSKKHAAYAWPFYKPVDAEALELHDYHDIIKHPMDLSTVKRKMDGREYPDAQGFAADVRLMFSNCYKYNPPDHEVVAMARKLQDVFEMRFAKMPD

IC50 (BRD4 BD2): 129 ± 45 nM
Ki (BRD4 BD2): 38 ± 2.2 nM
IC50 (MOLM-13 cells): 144 ± 31 nM
Ki (BRD3 BD1): 10.4 ± 1 nM
IC50 (BRD4 BD1): 80.6 ± 1 nM
Ki (BRD4 BD1): 26.9 ± 1 nM
IC50 (MV4;11 cells): 34 ± 15 nM
Ki (BRD3 BD2): 9.4 ± 1 nM
IC50 (K562 cells): > 2000 nM
Ki (BRD2 BD1): 12.2 ± 1.7 nM
Compound: COc1cc2c(cc1-c1c(C)noc1C)[nH]c1ccnc(-c3c(-c4ccccc4)n[nH]c3C)c12 [Compound 19, 4-(8-Methoxy-1-(5-methyl-3-phenyl-1H-pyrazol-4-yl)-5H-pyrido[4,3-b]indol-7-yl)-3,5-dimethyl-isoxazole]
